Test results taken from US20170182058A1, “TREATMENT OF RETT SYNDROME” (priority 2014, published 2017).
Read-outs that look alike come from different tables or passages of the source.

Key:
[1] = in vitro permeability of a layer of CaCo-2 cells; assay type: in vitro ADME, human; details: human, Caco-2; test conc 50 μM, assay duration 2 hr; read-out: mean A->B Papp (apparent permeability)
CaCo-2 cells = assay: in vitro permeability of a layer of CaCo-2 cells; assay type: in vitro ADME, human; details: based on in vitro CaCo-2 permeability
plasma stability = assay type: in vitro ADME; details: based on animal and in-vitro studies
mice [2] = assay: enhancement of learning in animals; assay type: in vivo; details: compared with galantamine
Text: Potentiation of nicotinic receptors facilitates release of a number of different neurotransmitters including dopamine, glutamate, and GABA.

nicotinic receptors = assay: neuronal electrophysiological activity via nicotinic receptors; details: galantamine positive allosteric modulatory site on nicotinic receptors
Mecp2 mice [3] = assay: locomotor activity, photobeam activity system; assay type: in vivo; details: 0.1-20 mg/kg
Protocol: Locomotor activity was monitored using methods described previously (Shaevitz et al. 2013 Genes Brain Behav. 12(7): 732-40. doi: […]). Mecp2 mutant males (between 1 and 3 months old) and females (between 3 and 6 months old) and age-matched controls were monitored for one-hour prior to and 12 hours after drug (or vehicle: 20% DMSO in saline) administration (one set of mice received IP injections and one set of mice received oral gavage) in doses that ranged from 0.1-20 mg/kg). Activity was measured across the 12-h dark cycle using a photobeam activity system (San Diego Instruments, San Diego, Calif., USA). Mice were placed individually into a cage (47×25×21 cm) inside a rectangular arena equipped with a 3×8 array of photobeams. The average number of ambulatory (two adjacent) and fine (repeated single) beam breaks per hour over the 12 h was compared. [N=2 mice/group at each dose and each administration route; for the vehicle controls, N=6 WT/group; N=6 Mecp2/group]. Data were analyzed using repeated measures analysis of variance.

Mecp2 mice [4] = assay: respiratory function, plethysmograph; assay type: in vivo; details: IP or gavage, 0.1-20 mg/kg
Protocol: Respiratory function was monitored in a plethysmograph (EMKA Technologies) for 30 minutes prior to and 1 hour after drug administration (one set of mice received IP injections and one set of mice received oral gavage). [N=2 mice/group at each dose and each administration route; for the vehicle controls, N=6 WT/group; N=6 Mecp2/group]. Data were analyzed using repeated measures analysis of variance.

female Mecp2 mice = assay: novel object recognition (NOR) task; assay type: in vivo; details: Mecp2 females
Protocol: Cognitive function was assessed using the novel object recognition (NOR) task using methods previously described (Schaevitz et al. 2013). […] Novel object memory was assessed. during three sessions. This task relies on the innate tendency of a mouse to explore unfamiliar objects vs. familiar objects. Testing was performed in an open-field arena. Twenty-four hours prior to training, mice were habituated to the arena for 10 min. Ninety minutes before training, the mice were administered drug or vehicle (0.1, 0.5, 1.0, 2.5 and 5.0 mg/kg IP). During training, mice were given 10 min to explore two identical Lego Objects (A +A). Short- and long-term object memory were assessed in two subsequent sessions (24 h after the completion of training) during which mice were given 10 min to explore the familiar (A) or a novel (B or C) object. The duration of exploration (defined as the mouse's snout or forelimbs physically touching or approaching within 1 cm of an object) of familiar and novel objects was measured. The amount of time spent exploring the novel object over the total time exploring both novel and familiar objects in each session was used to measure object memory. [N==6/dose of 0.1, 0.5 and 1.0; N=1/dose of 2.5 and 5.0 mg/kg; for vehicle N=6 WT and N=6 Mecp2 mice.]
For the novel Objection recognition task data, we created a matrix of all wildtype and. Mecp2 females who were administered the vehicle and a second matrix comparing Mecp2 females with and without the drug (all doses combined).

cholinesterase = cholinesterase inhibitor (Han et al 1991); cited from earlier work
mice [5] = details: cited from earlier work; for adverse effects at high doses: 50-100 mg/kg
[6] = drug IP, all doses 0.1-5.0 mg/kg combined

Compound	Papp A→B at 2 hr, 50 μM [1]	predicted oral bioavailability (CaCo-2 cells)	stability in plasma (plasma stability)	enhancing learning (mice [2])	neuronal electrophysiological activity (nicotinic receptors)	safety and tolerability (Mecp2 mice [3]; Mecp2 mice of both sexes and controls, from locomotor and respiratory tests)	locomotor activity (Mecp2 mice [3]; Mecp2 mice of either sex, IP or gavage)	ambulatory and fine motor movements (Mecp2 mice [3]; all doses tested, IP or oral gavage)	respiratory activity (Mecp2 mice [4])	NOR scores = or below 0.5 (share of mice that did not learn) (female Mecp2 mice; [6])	NOR scores above 0.5 (share of mice that learned) (female Mecp2 mice; [6])	NOR task performance versus vehicle (female Mecp2 mice; Chi square p = 0.0321)	IC50 (cholinesterase)	adverse effects at high doses (mice [5]; listed as Galantamine n-butylcarbamate)	adverse effects at high doses (mice [5]; listed as n-butylcarbamate)	lethality (no lethality up to dose) (mice [5])
CC(=O)CC(c1ccccc1)c1c(O)c2ccccc2oc1=O (stereo not drawn) [Warfarin, reference compound]	34.7 ×10⁻⁶ cm/s	–	–	–	–	–	–	–	–	–	–	–	–	–	–	–
CNC(=C[N+](=O)[O-])NCCSCc1ccc(CN(C)C)o1 [Ranitidine, reference compound]	1.1 ×10⁻⁶ cm/s	–	–	–	–	–	–	–	–	–	–	–	–	–	–	–
CCCCNC(=O)O[C@H]1C=C[C@@]23CCN(C)Cc4ccc(OC)c(c42)O[C@H]3C1 [galantamine n-butylcarbamate]	20.8 ×10⁻⁶ cm/s	80%	stable in plasma	effective in enhancing learning at lower doses than galantamine	enhances neuronal electrophysiological activity	safe and well tolerated	did not impair locomotor activity	not significant altered	did not affect respiratory activity	65%	35%	improves memory for a novel object and cognitive performance	1090 nM	affects cardiac and motor functions	wobbly and off-balance with rapid heart rate still present at 4 hours, but were recovered at 24 hours	> 100 mg/kg
